Reference: the NIST ThermoML archive (doi:10.1021/je800998u)
± gives the expanded uncertainty stated by the source.

Assay: molar heat capacity at constant pressure
Settings: 101.33 kPa, Liquid, Small (less than 1 g) adiabatic calorimetry

CC(C)COCC(C)C [diisobutyl ether]
Settings	molar heat capacity at constant pressure [J/K/mol]
263.39 K	262.95 ± 1.2
264.79 K	263.61 ± 1.2
266.2 K	263.86 ± 1.3
267.6 K	264.22 ± 1.3
269 K	264.8 ± 1.3
270 K	265.3 ± 1.3
270.4 K	265.39 ± 1.3
271.8 K	265.93 ± 1.3
273.19 K	266.68 ± 1.3
274.58 K	266.81 ± 1.3
275.97 K	267.53 ± 1.3
277.36 K	267.85 ± 1.3
278.74 K	268.3 ± 1.3
280 K	269 ± 1.3
281.5 K	269.6 ± 1.3
282.78 K	270.45 ± 1.3
284.16 K	270.8 ± 1.3
285.53 K	271.08 ± 1.3
286.9 K	271.46 ± 1.3
288.26 K	271.98 ± 1.3
289.62 K	272.75 ± 1.3
290 K	272.8 ± 1.3
290.98 K	273.36 ± 1.3
292.34 K	273.73 ± 1.3
293.69 K	274.04 ± 1.3
295.04 K	275.21 ± 1.3
296.39 K	275.08 ± 1.3
297.73 K	275.64 ± 1.3
298.15 K	276.08 ± 1.3
299.07 K	276.44 ± 1.3
300 K	276.8 ± 1.3
300.41 K	277.1 ± 1.3
301.75 K	277.51 ± 1.3
303.04 K	278.07 ± 1.3
304.14 K	278.56 ± 1.3
305.42 K	279.01 ± 1.3
306.7 K	279.35 ± 1.3
307.97 K	279.87 ± 1.3
309.24 K	280.81 ± 1.3
310 K	280.8 ± 1.3
310.5 K	280.87 ± 1.3
311.76 K	281.46 ± 1.3
313.02 K	282.03 ± 1.3
314.27 K	282.55 ± 1.3
315.52 K	282.93 ± 1.3
316.76 K	283.81 ± 1.3
318 K	284.25 ± 1.3
319.23 K	284.87 ± 1.3
320 K	285 ± 1.3
320.46 K	285.2 ± 1.3
321.69 K	285.88 ± 1.3
322.91 K	286.38 ± 1.4
323.9 K	286.65 ± 1.4
325.11 K	287.21 ± 1.4
326.32 K	287.74 ± 1.4
327.53 K	288.35 ± 1.4
328.73 K	288.89 ± 1.4
329.92 K	289.24 ± 1.4
330 K	289.5 ± 1.4
331.11 K	289.99 ± 1.4
332.3 K	290.62 ± 1.4
333.48 K	291.36 ± 1.4
334.66 K	291.41 ± 1.4
335.83 K	292.26 ± 1.4
337 K	292.85 ± 1.4
338.16 K	293.71 ± 1.4
339.32 K	294.5 ± 1.4
340 K	294.7 ± 1.4
340.48 K	295.14 ± 1.4
343.62 K	297.13 ± 1.4
344.76 K	297.38 ± 1.4
345.9 K	297.62 ± 1.4
347.04 K	298.5 ± 1.4
348.17 K	299 ± 1.4
350 K	300 ± 1.4
350.41 K	300.11 ± 1.4
351.51 K	300.37 ± 1.4
352.61 K	301.47 ± 1.4
353.7 K	302.2 ± 1.4
354.79 K	302.27 ± 1.4
355.88 K	302.92 ± 1.4
356.96 K	303.07 ± 1.4
358.04 K	303.49 ± 1.4
359.11 K	304.07 ± 1.4
359.83 K	304.07 ± 1.4
360 K	304.4 ± 1.4
360.9 K	304.89 ± 1.4
361.96 K	305.2 ± 1.4
363.02 K	305.35 ± 1.4
364.07 K	305.71 ± 1.4
365.12 K	305.76 ± 1.4
366.14 K	306.97 ± 1.4
367.16 K	307.23 ± 1.4
368.17 K	308 ± 1.4
369.17 K	308.72 ± 1.4
370 K	308.9 ± 1.4
370.15 K	309.38 ± 1.4
371.14 K	309.88 ± 1.4
372.11 K	310.26 ± 1.4
